Source: patent publication US11730705B2, “Small molecule CMKLR1 antagonists in inflammatory disease” (The Board of Trustees of the Leland Stanford Junior …, priority 2019, dated 2023)
Read-outs that look alike come from different tables or passages of the source.

Target: T1, CMKLR1 (Homo sapiens, UniProt Q99788)
T1 construct: host or cells: CHO-K1 (PathHunter)
T1 sequence (Q99788 1-373): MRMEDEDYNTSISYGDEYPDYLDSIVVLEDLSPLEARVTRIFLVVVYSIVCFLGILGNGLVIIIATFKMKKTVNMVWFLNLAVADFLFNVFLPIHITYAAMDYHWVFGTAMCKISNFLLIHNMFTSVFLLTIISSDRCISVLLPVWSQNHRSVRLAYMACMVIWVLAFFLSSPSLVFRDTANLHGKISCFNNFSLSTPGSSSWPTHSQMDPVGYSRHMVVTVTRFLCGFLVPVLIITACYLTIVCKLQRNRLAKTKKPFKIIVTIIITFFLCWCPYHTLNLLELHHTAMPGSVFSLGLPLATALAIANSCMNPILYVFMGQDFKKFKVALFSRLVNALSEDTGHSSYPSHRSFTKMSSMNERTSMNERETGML
Assay: β-arrestin recruitment assay (chemerin-mediated β-arrestin2 association with CMKLR1)
Type: cell-based
Protocol: FIG. 15A-15D. […] IC50 values were determined based on 6-point dose-response curves for each compound. (FIG. 15A) α-NETA. […] (FIG. 15A-15C) mean±SEM, n=3-18 independent experiments. […] 0.2 ml each compound (in 10% captisol) or vehicle control was administered by oral gavage beginning one day prior to psoriasis induction. Back skin thickness was measured daily and normalized to day 0. mean±SEM, n=10 mice for vehicle and α-NETA groups pooled from two independent trials; n=3 mice for (27) and (6) from one trial.
Cell culture. […] DiscoverX PathHunter® CHO-K1 CMKLR1 β-Arrestin Cells were grown in RPMI lacking phenol red (Gibco, Life Technologies), supplemented with L-glutamine, penicillin-streptomycin, sodium pyruvate, non-essential amino acid, BCS, hygromycin, and G418-sulfate.
β-arrestin recruitment assay. CMKLR1-CHO-β-Arrestin cells were seeded in 96 well plates at 1×10^5 cell/ml-100 ul/well and incubated overnight at 37° C., 5% CO2. The next day, media was removed and cells were pre-incubated in PBS with α-NETA or test compound (95 ul/well) in a 6 point dose response curve from 100 μM to 0.3 μM for 10 min at RT. (α-NETA and test compounds were reconstituted in DMSO; final DMSO concentration in each well was 0.1%). After 10 min, 5 ul of recombinant human chemerin (R&D Systems) at a final concentration of 20 nM was added to each well. Plates were incubated for 90 min at 37° C., 5% CO2. Media was then removed and 50 ul of chemiluminescent substrate (Tropix Gal-Screen, Applied Biosciences) was added. The plate was incubated for 1 hr at RT and luminescence was detected using the SpectraMax M5 plate reader (Molecular Devices). For each independent trial (single replicate dose curves), data was normalized to the maximum signal per compound tested and an IC50 value was generated using GraphPad Prism software. The average IC50 value for n independent trials (as specified in the table) is reported.

C[N+](C)(C)CCC(=O)c1cccc2ccccc12.[I-] [α-NETA, 2-(α-naphthoyl) ethyltrimethylammonium iodide]
IC50 (Table 2, tertiary amines, chemerin 20 nM, CHO transfectants, read-out: β-arrestin IC50 μM mean ± SEM (n)): 4.9 ± 1.5 µM | IC50 (initial studies, 4-5 years earlier, different source of α-NETA, read-out: β-arrestin2 inhibition IC50): 0.38 µM | IC50 (values given in running text b220, read-out: β-arrestin2 assay IC50): 2.3 µM
